Values joined by “and” are separate entries in the source; they are usually repeats but may differ in a detail not shown here. Equal values may be shown once.
Conditions: one skin biopsy 0.28 cm^2, 90 minutes

SMILES: C[C@]12CC[C@@H]3c4ccc(O)[14cH]c4CC[C@H]3[C@@H]1CC[C@@H]2O [E2-14C, Estradiol, 17 β-[4-^14C]]
- CPM (10 μL/cm^2 in water-ethanol on tape stripped skin): 1365 and 940 and 869
- DPM (counting efficiency 25%, tape stripped skin): 5337 and 3760 and 3476
- Total E2 (ng/Biopsy) (tape stripped skin): 11.9 ng/Biopsy and 8.4 ng/Biopsy and 7.7 ng/Biopsy
- ng/Biopsy (E2-14C) (tape stripped skin): 11.9 ng/Biopsy and 8.4 ng/Biopsy and 7.7 ng/Biopsy
- μCi/Biopsy (tape stripped skin): 0.002402 μCi/Biopsy and 0.001692 μCi/Biopsy and 0.001564 μCi/Biopsy

From US20260263350A1, “COMPOSITIONS” (Estrenue Pty Ltd, priority 2022, published 2026)
